Measurements: PubChem BioAssay (NCI)
Several values for one entry are separate records, joined by “and”; a condition that tells them apart may be missing. Equal values may be shown once.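 Step 1: Grow cells in 96-well plates. Step 2: Expose to compound for 48 hours at 5 concentrations. Step 3: Interpolate endpoints linearly; if unreached, use highest concentration. GI50 marks 50% less growth. TGI marks complete inhibition of growth.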

Key:
Assay in all cases: NCI tumour cell line growth inhibition, 48 h
BT-549 breast = test system: BT-549 breast
SF-268 CNS = test system: SF-268 CNS
SN12C renal = test system: SN12C renal
RXF 393 renal = test system: RXF 393 renal
SK-MEL-5 melanoma = test system: SK-MEL-5 melanoma
SF-539 CNS = test system: SF-539 CNS
HOP-92 NSCLC = test system: HOP-92 NSCLC
NCI-H460 lung = test system: NCI-H460 lung
NCI-H23 lung = test system: NCI-H23 lung
K-562 leukemia = test system: K-562 leukemia

Row | SMILES | GI50 (BT-549 breast) | TGI (BT-549 breast) | GI50 (SF-268 CNS) | TGI (SF-268 CNS) | GI50 (SN12C renal) | TGI (SN12C renal) | GI50 (RXF 393 renal) | TGI (RXF 393 renal) | GI50 (SK-MEL-5 melanoma) | TGI (SK-MEL-5 melanoma) | GI50 (SF-539 CNS) | TGI (SF-539 CNS) | GI50 (HOP-92 NSCLC) | TGI (HOP-92 NSCLC) | GI50 (NCI-H460 lung) | TGI (NCI-H460 lung) | GI50 (NCI-H23 lung) | TGI (NCI-H23 lung) | GI50 (K-562 leukemia) | TGI (K-562 leukemia)
1 | O=S(=O)(NCCCNc1cc(-c2cn(-c3ccccc3)nc2-c2cccc(O)c2)ccn1)c1ccc(Br)cc1 | 1.68 µM | 4.32 µM | 1.45 µM | 4.98 µM | 2.75 µM | 9.8 µM | 1.09 µM | 3.5 µM | 1.27 µM | 2.63 µM | 1.69 µM | 4.01 µM | 1.83 µM | 7.55 µM | 1.77 µM | 3.72 µM | 2.19 µM | 12.1 µM | 0.444 µM | 2.89 µM
2 | COc1ccc(OC)c(/C=C/c2ccnc3ccccc23)c1 |  | 14.4 µM |  | 18.2 µM |  | 17.6 µM |  | 2.72 µM |  | 12.9 µM |  | 0.671 µM |  | 18.1 µM |  | 12.3 µM |  | 5.72 µM |  | 2.06 µM
3 | Cc1ccccc1C(C(=O)NC1CCCCC1)N(C(=O)CNc1ccc(C#N)cc1)c1cccc(F)c1 (stereo not given) | 32.5 µM | > 100 µM | 16.6 µM | > 100 µM | 29.7 µM | > 100 µM | 1.84 µM | 5.6 µM | > 71.2 µM | > 100 µM | 16.2 µM | > 59.7 µM | 8.65 µM | 28.7 µM | 34.4 µM | > 100 µM | 25.1 µM | > 77.6 µM | > 95.7 µM | > 100 µM
4 | O=C1CC(N2C(=O)/C(=C/C(Cl)=C\c3ccc([N+](=O)[O-])cc3)SC2=S)C(=O)N1c1ccc(O)cc1 (stereo not given) | 2.03 µM | 4.21 µM | 2.43 µM | 6.99 µM | 1.6 µM | 5.88 µM | 1.53 µM | 3.22 µM | 1.92 µM | 3.66 µM | 1.72 µM | 3.81 µM | 1.62 µM | 3.72 µM | 2.55 µM | 6.75 µM | 1.56 µM | 3.52 µM | 0.603 µM | 9.55 µM
5 | Nc1nn(C(=O)Nc2c(F)cccc2F)c2ccccc12 | 28.8 µM | > 100 µM | 36.2 µM | > 100 µM | > 100 µM | > 100 µM | 20.2 µM | > 100 µM | 39.7 µM | > 100 µM | 31.4 µM | > 100 µM | 17.3 µM | > 100 µM | 33.4 µM | > 100 µM | 95.6 µM | > 100 µM | > 100 µM | > 100 µM
6 | CC1Cc2ccccc2N1C(=O)Cc1nc(N2CCOCC2)cc(=O)[nH]1 (stereo not given) | 1.37 µM and 5.58 µM | 57.2 µM and > 94.7 µM | 18.1 µM and 19.9 µM | > 100 µM | 9.39 µM and 13.9 µM | > 100 µM | 0.277 µM and 1.4 µM | 8.17 µM and 16.2 µM | 13.4 µM and 34.5 µM | 34.1 µM and > 100 µM | 8.79 µM and 22.4 µM | > 100 µM | 0.915 µM and 3.04 µM | 46.1 µM and > 75.2 µM | 17.2 µM and 32 µM | > 100 µM | 48.7 µM and > 91.5 µM | > 100 µM | > 100 µM | > 100 µM
7 | Cc1ccccc1C(C(=O)NC1CCCCC1)N(C(=O)CNc1ncccc1F)c1cccc(F)c1 (stereo not given) | > 58.4 µM | > 100 µM | 48.7 µM | > 100 µM | > 79.9 µM | > 100 µM | 4.72 µM | 20.1 µM | > 100 µM | > 100 µM | 22.7 µM | 81.7 µM | 13.9 µM | 62.4 µM | > 100 µM | > 100 µM | > 57.8 µM | > 100 µM | > 100 µM | > 100 µM
8 | Cc1ccc(OCCOCCOCCOCCOCCOc2ccc(C)n(O)c2=S)c(=S)n1O | 0.103 µM | > 64.5 µM | 0.0693 µM | > 100 µM | 0.0496 µM | > 100 µM | 0.327 µM | 17.1 µM | 0.0497 µM | 2.89 µM | 0.0606 µM | 15.1 µM | 3.06 µM | 54.5 µM | 0.0252 µM | 11.6 µM | 0.08 µM | > 100 µM | 0.0383 µM | > 100 µM
9 | OCC1CCCC1O (stereo not given) |  | > 100 µM |  | > 100 µM |  | > 100 µM |  | > 100 µM |  | > 100 µM |  | > 100 µM |  | > 100 µM |  | > 100 µM |  | > 100 µM |  | > 100 µM
10 | C=CCOC(=O)Nc1cccn([C@H](CC(C)C)C(=O)NCCC(C)C)c1=O | > 100 µM | > 100 µM | 84.8 µM | > 100 µM | > 100 µM | > 100 µM | > 100 µM | > 100 µM | 74.7 µM | > 100 µM | > 100 µM | > 100 µM | 2.67 µM | 57.8 µM | > 100 µM | > 100 µM | 57.2 µM | > 100 µM | 96 µM | > 100 µM
11 | C=C1C(=O)O[C@H]2[C@H]1CC/C(CNC(=O)/C=C/c1ccccc1F)=C\CC[C@@]1(C)O[C@@H]21 | 1.48 µM | 3.45 µM | 2.83 µM | 9.8 µM | 1.62 µM | 4.41 µM | 1.24 µM | 2.7 µM | 1.78 µM | 3.29 µM | 1.26 µM | 2.94 µM | 1.62 µM | 4.13 µM | 2.36 µM | 6.19 µM | 1.88 µM | 4.42 µM | 0.577 µM | 7.45 µM
